Among the data in a melting point compilation (Tetko et al.; mined from patent text by program, amines drawn as free bases though some values may be those of a salt) are melting point values, retold here.

For orientation: melting point means the temperature of the solid-liquid transition. `CCOc1cc(C)nc(-n2ccnc2)n1` displayed a melting point of 116 °C.

As to `CCCCCCCCCCCCCCCCCCOc1ccc(O)c(C(=O)OC)c1`, the melting point fell in the range of 53 to 54 °C. In the case of `CCCCCc1c(C(C)C)nc(C(C)C)c(CNCC)c1-c1ccc(F)cc1`, the melting point lay within 48 to 50 °C. For `CC(NC(=O)Cc1cc(F)cc(F)c1)C(=O)NC1(F)NC(=O)Cc2ccccc21` (stereo unspecified), the melting point was in the range of 195 to 200 °C. For `Nc1cc(Cl)c(Cl)c(Br)c1N`, the melting point lay in the range of 128 to 129 °C. With `CC(=O)OCc1c(Br)cccc1Br`, the melting point was in the range of 62 to 65 °C. The molecule `N#Cc1cccc2c(C3CCCCC3)nccc12` yielded a melting point of 94.7 °C. Regarding `CCC(=O)N1CCC(C(=O)OC2c3ccccc3C(=O)N2c2ccc3ccc(Cl)nc3n2)CC1` (stereo unspecified), the melting point came out at 189 °C. Take `CC(C)Nc1ccc(-c2ncc(C(F)(F)F)cc2Cl)cc1N`: the melting point fell in the range of 116 to 117 °C. On to `C=CCOc1cc(NC(C)=O)c(Cl)cc1C(=O)OC`, for which the melting point lay in the range of 110 to 112 °C. `Nc1ccc(Sc2cccc3c2C(=O)c2cccc(Sc4ccc(N)cc4)c2C3=O)cc1` registered a melting point of 364 to 365 °C. In turn, `COc1ccc(C(C)C)cc1-c1cc(-c2nnnn2C2CCNC2)c(OCc2ccccc2)cc1OCc1ccccc1` (stereo unspecified) had a melting point of 85 to 87 °C. As to `COC(=O)CCCc1cc2cc(Cl)ccc2n1S(=O)(=O)c1ccc(N)c([N+](=O)[O-])c1`, the melting point was 157 °C. Next, `CCOC(=O)c1sc(N)nc1-c1ccccc1Cl`: 162 to 164 °C; `C#Cc1c(Cl)cccc1Cl`: 97 to 98 °C.

The molecule `ON=C1CCCOc2ccccc21` gave a melting point of 96 to 98 °C. Molecule `CCCCc1c(OCCN2CCOCC2)c2c(OCCN3CCOCC3)cc(OCCN3CCOCC3)cc2oc1=O` had a melting point of 131 °C. As to `CC(=O)OC/C=C/c1ccc(-c2ccccc2C)cc1`, the melting point was in the range of 54 to 56 °C. Take `C=Cc1c(C(C)C)nc(C(C)C)c(CO)c1-c1ccc(F)cc1`: the melting point fell in the range of 119 to 120 °C. Regarding `O=C1N(c2ccc(Cl)cc2Cl)Cc2cnc(Nc3ccccc3)nc2N1c1cccc(CCN2CCOCC2)c1`, the melting point is 118 °C. Next, `CCCCCCNC(=S)NN=C(CCCCl)c1ccccc1`: 42 to 44 °C. Turning to `O=c1cc(O)nc2sc(CCC3CCCCC3)nn12`, the melting point was 215 to 219 °C. Molecule `COC(=O)C(F)(F)C1(C(F)(F)C(=O)OC)OCCO1` displayed a melting point of 66.5 to 67.5 °C.

As for `N#Cc1cccc(C(=O)c2ccccc2)c1`, the melting point was in the range of 84 to 85 °C.

`CC(=O)OC(C)c1ccc(C=C(C)c2ccc3c(c2)C(C)(C)CCC3(C)C)cc1` (stereo unspecified) yielded a melting point of 85 to 86 °C. The molecule `CC(=O)c1ccc2c(c1)CCC1(CC2)CC1` showed a melting point of 56 to 58 °C. `Cc1cc(OCc2ccc(-c3ccccc3C(=O)O)cc2)c2ncccc2n1` registered a melting point of 213 to 214 °C. As for `O=C(c1ccncc1)c1cc(Br)cc(Br)c1`, the figure is 89 to 92 °C; as for `CCCCCCCCOc1ccc(C#N)c(O)c1`, 69 to 71 °C. As for `CC(=O)N(C)c1c(I)c(N)c(I)c(C(=O)N(C)C)c1I`, the melting point was 235 to 240 °C.

Take `[O-][N+]1=C(c2ccccc2)c2cc(Cl)ccc2C=CC1`: the melting point was in the range of 122 to 123 °C. `N#CC(C#N)=C(NCCN1CCCCC1)N1CCC(N2CCCCC2)CC1` showed a melting point of 198 to 200 °C. Turning to `CC(=O)N1CCc2cc(C(=O)CCCN3CCC(c4noc5cc(F)ccc45)CC3)sc2C1`, the melting point was in the range of 145 to 147 °C.

Turning to `CC1(C)CCC(C)(C)c2cc(CC#Cc3ccc(C(=O)O)c(O)c3)c(O)cc21`, the melting point is 216 to 217 °C.

`c1ccc(C(c2ccccc2)N2CCN(CCCn3c(C4CCCCC4)nc4ccccc43)CC2)cc1` came in with a melting point of 115 °C.

For `C=CCC(CC=C)(CC=C)c1ccc(-c2nc3cc4c(cc3n2CCC)C(=N)NC4=N)cc1`, the melting point fell in the range of 230 to 232 °C. Molecule `COc1ccc(C(=O)c2cccc([N+](=O)[O-])c2C)cc1` had a melting point of 110 to 113 °C.

In turn, `CCCCN(C(=O)c1ccccc1)C(=NC(=O)c1ccccc1)Nc1ccc(C(N)=O)cc1` registered a melting point of 90 to 92 °C.

The molecule `O[C@H]1CSC(c2ccccc2)=N[C@@H]1c1ccccc1` (racemic) had a melting point of 142 °C.

With `CC(C)[C@H](NC(=O)[C@H](CC(=O)OC(C)(C)C)NC(=O)CCCN)C(=O)OC(C)(C)C`, the melting point fell in the range of 99 to 100 °C. With `COC(=O)CCC(=O)c1cccc(Cl)c1O`, the melting point lay in the range of 60 to 62 °C.

In turn, `CS(=O)(=O)c1ccc(Oc2cc(OCc3ccccc3)c3[nH]c(C(=O)O)cc3c2)cc1` came in with a melting point of 232 to 233 °C. In the case of `CCOC(=O)C(=O)c1ccccc1C(=O)c1ccc(Cl)cc1`, the melting point was in the range of 79 to 81 °C. Molecule `CCOC(=O)C=Cc1ccc(F)cc1F` showed a melting point of 40 to 40.5 °C. `O=C(Nc1ccc(OCCN2CCOCC2)c2ccccc12)c1cc(F)cc(N2CCCCCC2)c1` returned a melting point of 142 to 144 °C.

In turn, `O=C1NC(=O)C(Cc2ccc(S(=O)(=O)CCCc3ccccc3)cc2)S1` (stereo unspecified) returned a melting point of 126 to 127 °C.

In turn, `CNc1ccc2cnc(C(=O)c3ccc([N+](=O)[O-])c(C(=O)OC)c3)n2c1` showed a melting point of 183 °C.

In turn, `CC(C(=O)O)c1ccc2oc(N)nc2c1` (stereo unspecified) displayed a melting point of 225 to 229 °C. As for `COc1ccc(-c2sc3cc(OC)ccc3c2Br)cc1`, the figure is 83 °C; as for `CS(=O)(=O)c1ccc(-c2oc(C3CCCCC3)nc2-c2ccc(F)cc2)cc1`, 127 to 128 °C.

On to `CC(=O)NCCC1CCc2ccn3nc(C)c(C)c3c21` (stereo unspecified), for which the melting point lay in the range of 134 to 135 °C. As for `C=C(Cl)COc1cc(C)nc(NCCCCCC)n1`, the figure is 36 to 37 °C; as for `COC(=O)c1nc(-c2ccc(Cl)c(OC)c2F)nc(N)c1C(C)F` (stereo unspecified), 150 to 152 °C; as for `COc1cc(N2CCN(C3CCN(c4cccc5cccnc45)CC3)CC2)c2ncccc2c1`, 194 to 197 °C.

Regarding `CN(C)C=NCc1ccc2c(c1)Nc1nccnc1S2`, the melting point was in the range of 218 to 219 °C. Next, `CC(OS(C)(=O)=O)C(=O)O` (single isomer, unassigned; (-)): 65 to 72 °C; `Cc1nn(C)c(NN)c1[N+](=O)[O-]`: 177 to 179 °C; `NS(=O)(=O)C(Br)(Br)S(=O)(=O)c1ccc(Br)cc1`: 192 °C. The molecule `C=Cc1ccc(-c2ccc(OC(C)CCCCCC)cc2)cc1` (stereo unspecified) gave a melting point of 80.6 °C. Molecule `CCOC(=O)c1cc2c(=O)n(C(C)C)c3ccccc3n2c1` displayed a melting point of 169 to 170 °C. Next, `CS(=O)(=O)c1ccc(-c2cnn(CC(F)(F)F)c(=O)c2NC2CCCO2)cc1` (stereo unspecified): 128 to 129 °C; `COc1ccc(C2=CC=CCC2(OC(C)C)C(=O)O)c(OC)c1` (stereo unspecified): 121 to 122 °C; `CCCc1c(SC(=S)N(CC)CC)c2cc(Br)ccc2oc1=O`: 135 to 137 °C.

Take `CC(C)(C)c1ccc(CNC(=O)C(Cc2ccccc2)NC(=O)Nc2n[nH]c(=S)s2)cc1` (stereo unspecified): the melting point was 213 to 214 °C.

`N#CC(N)C(=O)c1ccc(C=O)cc1` (stereo unspecified) returned a melting point of 122 to 125 °C.

On to `CCCc1[nH]c2ccc(OCc3ccc4ccccc4n3)cc2c1CC`, for which the melting point amounted to 91 °C. `COc1cc(OC)nc(Oc2ccccc2C(=O)ON(C)C)n1`: the melting point lay within 71 to 72.5 °C. Molecule `COc1cc(C(=O)c2nc(-c3ccc[nH]3)c3ccccn23)ccc1N` returned a melting point of 136 °C. As to `NC(=O)c1cc(C(=O)O)c(O)c2ncc(Cc3ccc(F)cc3)cc12`, the melting point fell in the range of 265 to 266 °C.

The molecule `COc1ccc(C(=O)C2CCCCC2)c(Cl)c1Cl` came in with a melting point of 97 to 98 °C. Next, `COc1cc(Nc2cc(C(=O)NN)ccn2)cc(C(F)(F)F)c1`: 229 to 230 °C; `CC1(C)NC(=O)c2ccccc2N1CCCN1CCC(C(=O)c2ccc(F)cc2)CC1`: 186 °C; `CCCc1c(OCCCCCOc2ccccc2OCC(=O)O)ccc2c1OCCC2=O`: 98 to 99 °C.

`CCOC(O)C(F)(F)C(F)(F)C(F)(F)C(F)(F)C(O)OCC` (stereo unspecified) returned a melting point of 110 to 111 °C.

Take `CC(=O)N1N=C(c2ccncc2)OC1c1c(Cl)cccc1Cl` (stereo unspecified): the melting point was 163 °C. `C=CCC1(CC=C)c2cc(-c3ncncn3)ccc2-c2ccc(N(c3ccccc3)c3ccccc3)cc21`: the melting point fell in the range of 235 to 237 °C. `COc1ccc(C=O)c2cc(C)oc12` had a melting point of 167 to 170 °C. Next, `CCOC(=O)c1cnc2cc(F)c(F)cc2c1Cl`: 111 °C; `CC(C)Oc1cccc(C=C(C=O)C(C=O)=Cc2cccc(OC(C)C)c2)c1`: 116 to 117 °C.

The molecule `Cc1nc(CC2(C)CCN(c3ccc(F)cc3)CC2)nc(C(=O)NCC(=O)O)c1O` showed a melting point of 140 to 141 °C.

Turning to `CN1CCN(Cc2ccc(C(=O)Nc3ccc(CO)c(Nc4nccc(-c5cccnc5)n4)c3)cc2)CC1`, the melting point lay in the range of 196 to 198 °C. `O=C(O)[C@@H](CSCc1ccccc1)N1C(=O)C=CC1=O` returned a melting point of 86 to 87 °C. With `O=C(NCc1cccnc1)c1ccc2n1Cc1ccccc1N(C(=O)CSc1ccc(Br)cc1)C2`, the melting point is 136 to 137 °C.

`Cn1nc(-c2ccccc2C(F)(F)F)nc1-c1ccccc1C(F)(F)F`: the melting point is 108 to 111 °C.

In turn, `CN(C)CCNc1ncc(-c2ccccc2)c(C(=O)N(C)Cc2cc(C(F)(F)F)cc(C(F)(F)F)c2)n1` yielded a melting point of 108 to 110 °C. Turning to `Cn1cnc2nc(-c3cccc4ccccc34)nn2c1=S`, the melting point is 278 to 279 °C.

The molecule `Cc1cc(N2NCCNC2=O)cc(Cl)c1C(O)c1ccc(Cl)cc1` (stereo unspecified) showed a melting point of 146 to 147 °C. In turn, `OCc1cccc2nc(-c3ccccc3)sc12` had a melting point of 101 to 102 °C.

On to `NC(=O)c1cc2cccc(NC(=O)c3cccs3)c2[nH]1`, for which the melting point lay within 289 to 290 °C. `Fc1cccc(-c2nc(Nc3ccc(Cl)cc3)c3ccccc3n2)n1` yielded a melting point of 118 to 121 °C. As for `CCOc1n[nH]c(=O)n1C`, the figure is 126 °C.
